Source: US11447466B2, “Substituted indole compounds useful as inhibitors of TLR7/8/9” (BRISTOL-MYERS SQUIBB COMPANY, priority 2017, dated 2022)

How the values were obtained:
Type in all cases: cell-based
human TLR7 = target: T1, human TLR7 (Homo sapiens, UniProt Q9NYK1); assay: TLR7 inhibition reporter assay (HEK-Blue SEAP reporter, gardiquimod stimulation); details: HEK-Blue cells overexpressing human TLR7, SEAP reporter, gardiquimod 7.5 μM, 22 hour incubation
T1 construct: host or cells: HEK-Blue cells
T1 sequence (Q9NYK1 27-1049): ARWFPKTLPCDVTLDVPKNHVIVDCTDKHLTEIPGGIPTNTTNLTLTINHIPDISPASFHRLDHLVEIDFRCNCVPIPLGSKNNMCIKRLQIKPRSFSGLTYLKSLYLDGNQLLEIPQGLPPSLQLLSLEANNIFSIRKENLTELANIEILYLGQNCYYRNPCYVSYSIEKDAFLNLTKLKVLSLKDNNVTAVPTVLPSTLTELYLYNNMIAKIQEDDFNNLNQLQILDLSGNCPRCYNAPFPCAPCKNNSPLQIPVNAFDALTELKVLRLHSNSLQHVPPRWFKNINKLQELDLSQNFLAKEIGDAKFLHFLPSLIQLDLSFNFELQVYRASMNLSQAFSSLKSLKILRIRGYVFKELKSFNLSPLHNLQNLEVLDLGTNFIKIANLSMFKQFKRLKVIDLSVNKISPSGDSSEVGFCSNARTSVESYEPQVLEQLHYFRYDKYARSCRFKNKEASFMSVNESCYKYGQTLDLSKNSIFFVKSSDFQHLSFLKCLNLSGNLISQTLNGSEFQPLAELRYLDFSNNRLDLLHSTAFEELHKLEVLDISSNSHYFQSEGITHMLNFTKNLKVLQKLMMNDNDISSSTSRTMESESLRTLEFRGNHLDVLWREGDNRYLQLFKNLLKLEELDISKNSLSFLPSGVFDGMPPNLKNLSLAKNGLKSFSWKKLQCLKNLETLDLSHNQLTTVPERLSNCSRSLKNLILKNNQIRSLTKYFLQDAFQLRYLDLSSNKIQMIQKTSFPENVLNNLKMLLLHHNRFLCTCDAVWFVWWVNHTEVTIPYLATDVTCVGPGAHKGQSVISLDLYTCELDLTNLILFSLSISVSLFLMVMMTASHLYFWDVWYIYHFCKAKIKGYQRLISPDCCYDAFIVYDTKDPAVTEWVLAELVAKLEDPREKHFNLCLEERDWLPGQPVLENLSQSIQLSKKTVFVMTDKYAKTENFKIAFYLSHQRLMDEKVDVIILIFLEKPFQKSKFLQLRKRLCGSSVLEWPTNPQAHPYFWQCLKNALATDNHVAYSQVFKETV
How it was run: (§1)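 Screening used HEK-Blue cells overexpressing one human TLR (7, 8 or 9) and an IFN-β minimal promoter–NF-κB/AP-1 SEAP construct. Stimulation lasted 22 h at 37 °C with receptor-specific agonist: gardiquimod, R848 or ODN2006 at 7.5 μM, 15.9 μM and 5 nM.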

human TLR8 = target: T2, human TLR8 (Homo sapiens, UniProt Q9NR97); assay: TLR8 inhibition reporter assay (HEK-Blue SEAP reporter, R848 stimulation); details: HEK-Blue cells overexpressing human TLR8, SEAP reporter, R848 15.9 μM, 22 hour incubation
T2 construct: host or cells: HEK-Blue cells
T2 sequence (Q9NR97 27-1041): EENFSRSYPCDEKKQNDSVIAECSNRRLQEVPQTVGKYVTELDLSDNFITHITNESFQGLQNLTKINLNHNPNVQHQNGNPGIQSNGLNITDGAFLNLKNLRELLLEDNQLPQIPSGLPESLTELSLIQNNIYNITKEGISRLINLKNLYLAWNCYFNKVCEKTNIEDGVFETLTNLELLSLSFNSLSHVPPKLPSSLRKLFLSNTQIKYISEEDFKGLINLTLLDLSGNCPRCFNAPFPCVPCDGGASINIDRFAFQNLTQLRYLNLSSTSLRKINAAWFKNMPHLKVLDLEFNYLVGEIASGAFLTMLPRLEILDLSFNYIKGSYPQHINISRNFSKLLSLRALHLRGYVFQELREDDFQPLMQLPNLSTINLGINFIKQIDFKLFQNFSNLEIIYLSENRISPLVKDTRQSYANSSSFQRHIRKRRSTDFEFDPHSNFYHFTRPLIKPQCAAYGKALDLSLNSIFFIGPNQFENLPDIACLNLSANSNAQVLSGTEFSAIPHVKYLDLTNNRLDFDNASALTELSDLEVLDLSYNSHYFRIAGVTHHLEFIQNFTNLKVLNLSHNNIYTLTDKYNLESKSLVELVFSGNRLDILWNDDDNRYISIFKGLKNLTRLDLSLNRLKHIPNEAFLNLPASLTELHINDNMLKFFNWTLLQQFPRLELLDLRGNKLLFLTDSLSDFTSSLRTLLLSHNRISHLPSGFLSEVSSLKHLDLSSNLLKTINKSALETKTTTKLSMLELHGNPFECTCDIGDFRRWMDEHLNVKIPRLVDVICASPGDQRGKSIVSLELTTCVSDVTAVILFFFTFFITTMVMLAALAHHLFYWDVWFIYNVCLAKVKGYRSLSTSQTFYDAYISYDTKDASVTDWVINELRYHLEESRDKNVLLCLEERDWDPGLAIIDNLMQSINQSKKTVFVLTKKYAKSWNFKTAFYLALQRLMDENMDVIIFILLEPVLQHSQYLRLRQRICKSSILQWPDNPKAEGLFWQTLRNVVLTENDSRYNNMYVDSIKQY
How it was run: as §1

human TLR9 = target: T3, human TLR9 (Homo sapiens, UniProt Q9NR96); assay: TLR9 inhibition reporter assay (HEK-Blue SEAP reporter, ODN2006 stimulation); details: HEK-Blue cells overexpressing human TLR9, SEAP reporter, ODN2006 5 nM, 22 hour incubation
T3 construct: host or cells: HEK-Blue cells
T3 sequence (Q9NR96 26-1032): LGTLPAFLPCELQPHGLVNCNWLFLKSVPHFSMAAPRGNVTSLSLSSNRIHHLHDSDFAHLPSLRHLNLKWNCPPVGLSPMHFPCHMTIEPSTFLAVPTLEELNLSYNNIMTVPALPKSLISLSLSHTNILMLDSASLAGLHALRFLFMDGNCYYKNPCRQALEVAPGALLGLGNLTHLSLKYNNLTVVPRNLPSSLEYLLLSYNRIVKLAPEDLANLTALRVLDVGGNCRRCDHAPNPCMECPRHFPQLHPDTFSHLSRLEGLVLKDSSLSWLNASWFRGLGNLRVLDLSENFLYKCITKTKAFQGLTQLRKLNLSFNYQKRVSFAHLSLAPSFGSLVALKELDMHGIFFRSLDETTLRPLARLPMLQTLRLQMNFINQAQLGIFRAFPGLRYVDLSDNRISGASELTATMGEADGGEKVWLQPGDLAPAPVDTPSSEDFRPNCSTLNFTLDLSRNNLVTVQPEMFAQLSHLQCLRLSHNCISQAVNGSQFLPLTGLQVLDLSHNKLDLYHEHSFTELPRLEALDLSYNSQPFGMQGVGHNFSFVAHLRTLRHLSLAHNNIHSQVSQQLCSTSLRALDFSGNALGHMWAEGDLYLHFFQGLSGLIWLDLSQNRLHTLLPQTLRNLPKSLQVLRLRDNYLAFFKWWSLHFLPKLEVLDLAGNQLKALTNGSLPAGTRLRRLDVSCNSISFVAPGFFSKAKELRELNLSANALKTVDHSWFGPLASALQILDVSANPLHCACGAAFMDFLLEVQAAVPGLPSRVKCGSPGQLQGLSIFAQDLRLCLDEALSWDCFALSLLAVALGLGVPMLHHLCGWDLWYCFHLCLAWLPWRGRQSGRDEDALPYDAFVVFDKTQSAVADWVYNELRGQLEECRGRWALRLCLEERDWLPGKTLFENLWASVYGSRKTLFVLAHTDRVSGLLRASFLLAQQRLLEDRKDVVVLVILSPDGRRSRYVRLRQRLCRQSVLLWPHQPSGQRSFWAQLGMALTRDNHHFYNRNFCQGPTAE
How it was run: as §1

| Structure (SMILES) | IC50 (human TLR7) [nM] | IC50 (human TLR8) [nM] | IC50 (human TLR9) [nM] |
| --- | --- | --- | --- |
| Cc1c(-c2[nH]c3ccc(C4CCN(CC5CCOC5)CC4)cc3c2C(C)C)cn(C)c(=O)c1Cl (stereo not drawn) [Example 255, 3-chloro-5-(3-isopropyl-5-(1-((tetrahydrofuran-3-yl)methyl)piperidin-4-yl)-1H-indol-2-yl)-1,4-dimethylpyridin-2(1H)-one] | 4.8 | 2.3 | 1820 |
| COc1cc(-c2[nH]c3ccc(C4CCNCC4)cc3c2C(C)C)cn(C)c1=O [Example 20, 5-(3-isopropyl-5-(piperidin-4-yl)-1H-indol-2-yl)-3-methoxy-1-methylpyridin-2(1H)-one] | 6 | 17 | 1790 |
| Cc1cc(-c2[nH]c3ccc(C4CCN(C5CCC(C(F)(F)F)CC5)CC4)cc3c2C(C)C)cn(C)c1=O (stereo not drawn) [Example 231, 5-(3-isopropyl-5-(1-(4-(trifluoromethyl)cyclohexyl)piperidin-4-yl)-1H-indol-2-yl)-1,3-dimethylpyridin-2(1H)-one] | 7 | 22.3 | 3230 |
| Cc1c(-c2[nH]c3ccc(C4CCN(S(=O)(=O)CCN5CCCC5)CC4)cc3c2C(C)C)cn(C)c(=O)c1Cl [Example 308, 3-chloro-5-(3-isopropyl-5-(1-((2-(pyrrolidin-1-yl)ethyl)sulfonyl)piperidin-4-yl)-1H-indol-2-yl)-1,4-dimethylpyridin-2(1H)-one] | 2 | 22.1 | 5650 |
| Cc1cc(-c2[nH]c3ccc(C4CCN(C(=O)C[C@H](C)O)CC4)cc3c2C(C)C)cn(C)c1=O [Example 305, (S)-5-(5-(1-(3-hydroxybutanoyl)piperidin-4-yl)-3-isopropyl-1H-indol-2-yl)-1,3-dimethylpyridin-2(1H)-one] | 11 | 97.5 | ≥ 50000 |
| CNC(=O)c1cccc(-c2cc(-c3[nH]c4ccc(C5CCNCC5)cc4c3C(C)C)cn(C)c2=O)c1 [Example 59, 3-(5-(3-isopropyl-5-(piperidin-4-yl)-1H-indol-2-yl)-1-methyl-2-oxo-1,2-dihydropyridin-3-yl)-N-methylbenzamide] | 46.6 | 270 | 5850 |
| Cc1c(-c2[nH]c3ccc(C4CCN(C5COC5)CC4)cc3c2C(C)C)cc(C#N)c(=O)n1C [Example 219, 5-(3-isopropyl-5-(1-(oxetan-3-yl)piperidin-4-yl)-1H-indol-2-yl)-1,6-dimethyl-2-oxo-1,2-dihydropyridine-3-carbonitrile] | 48 | 9.1 | 22300 |
| COc1cc(-c2[nH]c3ccc(C4CCN(CC(C)(C)O)CC4)cc3c2C(C)C)c(C)n(C)c1=O [Example 318, 5-(5-(1-(2-hydroxy-2-methylpropyl)piperidin-4-yl)-3-isopropyl-1H-indol-2-yl)-3-methoxy-1,6-dimethylpyridin-2(1H)-one] | 361 | 22.3 | 3430 |
| CC(=O)N1CC(N2CCC(c3ccc4[nH]c(-c5cn(C)c(=O)c(Cl)c5C)c(C(C)C)c4c3)CC2)C1 [Example 174, 5-(5-(1-(1-acetylazetidin-3-yl)piperidin-4-yl)-3-isopropyl-1H-indol-2-yl)-3-chloro-1,4-dimethylpyridin-2(1H)-one] | 15.7 | 44.8 | ≥ 50000 |
| CNC(=O)CN1CCC(c2ccc3[nH]c(-c4cc(OC)c(=O)n(C)c4C)c(C(C)C)c3c2)CC1 [Example 142, 2-(4-(3-isopropyl-2-(5-methoxy-1,2-dimethyl-6-oxo-1,6-dihydropyridin-3-yl)-1H-indol-5-yl)piperidin-1-yl)-N-methylacetamide] | 205 | 95.4 | 7650 |
| COc1cc(-c2[nH]c3ccc(C4CCN(C(=O)CN(C)C)CC4)cc3c2C(C)C)cn(C)c1=O [Example 286, 5-(5-(1-(dimethylglycyl)piperidin-4-yl)-3-isopropyl-1H-indol-2-yl)-3-methoxy-1-methylpyridin-2(1H)-one] | 5 | 5.6 | 289 |
| Cc1cc(-c2[nH]c3ccc(C4CCN(C5CCOCC5)CC4)cc3c2C(C)C)cn(Cc2ccccc2)c1=O [Example 263, 1-benzyl-5-(3-isopropyl-5-(1-(tetrahydro-2H-pyran-4-yl)piperidin-4-yl)-1H-indol-2-yl)-3-methylpyridin-2(1H)-one] | 10.8 | 24.1 | 1560 |
| Cc1c(-c2[nH]c3ccc(C4CCN(C5CCCC5)CC4)cc3c2C(C)C)cn(C)c(=O)c1Cl [Example 97, 3-chloro-5-(5-(1-cyclopentylpiperidin-4-yl)-3-isopropyl-1H-indol-2-yl)-1,4-dimethylpyridin-2(1H)-one] | 5.2 | 9.7 | 2050 |
| Cc1c(-c2[nH]c3ccc(C4CCN(CC(C)C)CC4)cc3c2C(C)C)cn(C)c(=O)c1Cl [Example 106, 3-chloro-5-(5-(1-isobutylpiperidin-4-yl)-3-isopropyl-1H-indol-2-yl)-1,4-dimethylpyridin-2(1H)-one] | 6.2 | 5.5 | 1250 |
